Target: T1, human leukocyte-derived elastase [ヒト白血球由来エラスターゼ] (Homo sapiens, UniProt P08246)
T1 construct: ヒト白血球由来エラスターゼはシグマ社; purchased Sigma (USA); host or cells: human leukocytes (natural source, as the printed name says)
T1 sequence (P08246 30-247 limits assumed): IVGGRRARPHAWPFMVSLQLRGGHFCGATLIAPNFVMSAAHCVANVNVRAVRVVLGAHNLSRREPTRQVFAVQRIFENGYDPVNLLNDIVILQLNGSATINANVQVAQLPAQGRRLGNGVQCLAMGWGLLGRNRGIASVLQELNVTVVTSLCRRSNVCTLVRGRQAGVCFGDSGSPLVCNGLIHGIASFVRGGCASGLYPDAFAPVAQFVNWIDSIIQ
Assay: エラスターゼ阻害試験 (elastase inhibition test, Test Example 1; fluorogenic substrate)
Format: biochemical
Conditions: 50% inhibitory concentration of elastase activity; substrate methoxysuccinyl-Ala-Ala-Pro-Val-4-methyl-coumaryl-7-amide; 0.2M Tris-HCl buffer containing 1M NaCl, pH 8.5; 35℃, 5 min incubation; fluorescence 370/460 nm

Row | IC50 [µM] | SMILES
1 | 3 | CCOC(=O)C(CCC(C)C)(CCC(C)C)C(=O)NOCc1ccccc1 [実施例1, 2−イソペンチル−5−メチル−2−エトキシカルボニルヘキサノヒドロキサム酸ベンジルエステル]
2 | 1 | CCOC(=O)C(CCC(C)C)(CCC(C)C)C(=O)NO [実施例2, 2−イソペンチル−5−メチル−2−エトキシカルボニルヘキサノヒドロキサム酸]
3 | 1 | CC(C)CCC(CCC(C)C)C(=O)NO [実施例4, 2−イソペンチル−5−メチルヘキサノヒドロキサム酸]
